Laboratory results: ChEMBL document CHEMBL1158056, “Antidepressant principles of the roots of Polygala tenuifolia” (J Nat Prod, 2006)

Target: Sodium-dependent noradrenaline transporter (Homo sapiens, UniProt P23975)
Test: biochemical
Description: Displacement of [125I]RTI-55 from human NET expressed in MDCK cell membrane

Sodium-dependent noradrenaline transporter, sequence (P23975 whole entry): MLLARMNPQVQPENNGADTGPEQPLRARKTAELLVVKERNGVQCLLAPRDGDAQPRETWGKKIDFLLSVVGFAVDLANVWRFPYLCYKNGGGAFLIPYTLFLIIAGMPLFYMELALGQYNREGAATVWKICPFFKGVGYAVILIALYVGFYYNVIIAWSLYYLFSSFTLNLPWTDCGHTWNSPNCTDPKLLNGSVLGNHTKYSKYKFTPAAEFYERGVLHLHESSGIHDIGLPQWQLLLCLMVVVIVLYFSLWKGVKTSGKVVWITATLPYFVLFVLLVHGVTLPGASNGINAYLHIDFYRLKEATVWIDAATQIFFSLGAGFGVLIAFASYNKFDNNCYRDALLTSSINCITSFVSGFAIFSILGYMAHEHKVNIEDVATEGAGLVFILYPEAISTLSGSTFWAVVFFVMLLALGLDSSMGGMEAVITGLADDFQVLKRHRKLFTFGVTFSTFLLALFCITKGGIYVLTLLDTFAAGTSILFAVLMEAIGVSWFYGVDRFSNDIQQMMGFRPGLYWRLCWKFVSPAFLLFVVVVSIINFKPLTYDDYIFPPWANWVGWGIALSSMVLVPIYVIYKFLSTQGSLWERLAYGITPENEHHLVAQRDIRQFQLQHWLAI

| Structure (SMILES) | IC50 [µM] |
| --- | --- |
| OC[C@@H]1OC[C@@H](O[C@@H]2O[C@@H](COCc3ccccc3)[C@@H](O)[C@@H](O)[C@@H]2O)[C@H](O)[C@H]1O [POLYGALATENOSIDE A] | 30 |
| OC[C@@H]1OC[C@@H](O[C@@H]2O[C@@H](CO)[C@@H](O)[C@@H](OCc3ccccc3)[C@@H]2O)[C@H](O)[C@H]1O [POLYGALATENOSIDE B] | 6.04 |
